Entries after “also recorded” stand apart in the source; their conditions may differ. Read-outs that look alike come from different tables or passages of the source. {TEG} = triethylene glycol tail moiety
How the values were obtained:
ryanodine receptor [1] = conditions: mouse model of DMD; cited from earlier work
ryanodine receptor [2] = conditions: patient cells; cited from earlier work
dystrophin = experiment: Immunohistochemical analysis of dystrophin expression in quadriceps of Mdx mice; assay type: in vivo, mouse; conditions: compared to Mdx mice treated with saline or CAT-1004 monotherapy
Text: (§1) Wild-type (WT) (C57BL/10ScSn/J) and Mdx (C57BL/10ScSn-Dmd^mdx/J) mice were used to test the efficacy of the M23D PMO (AVI-4225) in combination with CAT-1004. 5-week old mice were acquired from Jackson Labs and acclimated for one-week. The treatment duration was 4 weeks and began when the mice were 6 weeks of age. Mice were divided into the following five treatment groups, each with N=12: (1) wild-type mice treated with saline, (2) Mdx mice treated with saline, (3) Mdx mice treated with CAT-1004, (4) Mdx mice treated with the M23D PMO, and (5) Mdx mice treated with the M23D PMO in combination with CAT-1004. Mice were dosed weekly with M23D PMO (AVI-4225) at 40 mg/kg by IV injection and treated with CAT-1004 (1%) in their diet. All non-CAT-1004 animals were fed a normal chow control diet and all non-M23D PMO animals were given weekly IV injections of saline. Food consumption was closely monitored and the feed was changed twice per week. Mice were sacrificed at 10 weeks of age (4 weeks post-first dose). The quadriceps, diaphragm, and heart were harvested from each of the respective treatment groups.
For immunohistochemistry, frozen quadriceps sections were serially cut and mounted on slides using a cryostat. Sections were rehydrated in PBS and then blocked with Mouse on Mouse (MOM) blocking buffer for 1 hour at room temperature. […]

Mdx mice [3] = experiment: Histology (H&E and picrosirius red staining) of quadriceps, PMO and CAT-1004 efficacy study in Mdx mice; assay type: in vivo, mouse; conditions: 4 weeks treatment, M23D PMO 40 mg/kg IV weekly or CAT-1004 1% in diet, compared to Mdx mice treated with saline
Text: as §1, with “All non-CAT-1004 animals were fed a normal chow control diet and all non-M23D PMO animals were given weekly IV injections of saline.” left out, “Mice were sacrificed at 10 weeks of age (4 weeks post-first dose). The quadriceps, diaphragm, and heart were harvested from each of the respective treatment groups.” left out
To assess the effectiveness of a combination treatment of an exon skipping antisense oligonucleotide and an NF-Kb inhibitor in Duchenne muscular dystrophy, M23D PMO and CAT-1004 were utilized in the Mdx mouse model. The effect on inflammation and fibrosis was determined by analyzing samples of muscle taken from the quadriceps, of (1) wild-type mice treated with saline, (2) mdx mice treated with saline, (3) mdx mice treated with CAT-1004, (4) mdx mice treated with the M23D PMO, and (5) mdx mice treated with the M23D PMO in combination with CAT-1004. […]

[4] = tested on: mouse dystrophin exon 23 pre-mRNA; experiment: RT-PCR analysis for exon 23 skipping in Mdx mice; assay type: in vivo; conditions: muscle of quadriceps, diaphragm and heart of Mdx mice; 4 weeks treatment
Text: as §1
For exon skipping analysis, quadriceps, diaphragm, and heart tissue samples were homogenized. […] Exon 23 skipping was determined by Caliper imaging. […] Percentage of skipping was determined using the formula: % skipping=skipped molarity/(unskipped+skipped molarity)×100%. […]

juvenile rats = conditions: T cell-dependent antibody responses, immunophenotyping of peripheral blood T- and B-cell subpopulations; cited from earlier work
human DMD transcript = conditions: hDMD mouse model; cited from earlier work
[5] = tested on: exon 51 of dystrophin pre-mRNA; conditions: normal human skeletal muscle cells or muscle cells from DMD patients; RT-PCR and Western blot; cited from earlier work
[6] = tested on: golden retriever muscular dystrophy (GRMD) dog; conditions: cited from earlier work; for phenotype: GRMD dog, long-term treatment; for diaphragm function: dog DMD model
dystrophin protein = experiment: Western blot analysis of dystrophin protein levels in Mdx mice; assay type: in vivo, mouse; conditions: quadriceps, diaphragm and heart of Mdx mice, combination compared to M23D PMO monotherapy
Text: as §1
Dystrophin protein was analyzed by Western blot analysis, and immunohistochemistry. […] Total protein concentration of the protein lysates were measured using Pierce™ BCA Protein Assay Kit (ThermoFisher Scientific catalog #23225). […]

Mdx mice [7] = conditions: cited from earlier work; for inflammation and fibrosis: mdx mice (Hammers et al.); for phenotype: mdx mouse, long-term treatment; for diaphragm function: mouse DMD model (mdx)
cNF-κB = conditions: in vitro; cited from earlier work
[8] = phase I clinical program, adults, placebo-controlled studies; cited from earlier work
NF-κB = conditions: cited from earlier work
NF-κB p65 = conditions: cited from earlier work
[9] = cited from earlier work

O=C1CN(/N=C/c2ccc(-c3ccc([N+](=O)[O-])cc3)o2)C(O)=N1 [dantrolene]
antisense-mediated exon skipping (ryanodine receptor [1]): enhance antisense-mediated exon skipping
antisense-mediated exon skipping (ryanodine receptor [2]): enhance antisense-mediated exon skipping

M23D PMO: PMO hybridizing to mouse dystrophin exon 23 pre-mRNA, TEG tail at 5′ end, sequence GGCCAAACCTCGGCTTACCTGAAAT (SEQ ID NO: 30) (antisense GGCCAAACCTCGGCTTACCTGAAAT; all phosphorodiamidate morpholino (PMO), 5' {TEG})
dystrophin expression (immunohistochemistry) (dystrophin): increase in dystrophin expression
inflammation and fibrosis in quadriceps (Mdx mice [3]): reduction of inflammation and fibrosis
exon 23 skipping [4]: Exon skipping was observed

eteplirsen
effect on the immune response (juvenile rats): no adverse effect on the immune response
exon 51 skipping in vivo (human DMD transcript): confirmed in vivo
exon 51 skipping [5]: potent inducer of exon 51 skipping

CC/C=C\C/C=C\C/C=C\C/C=C\C/C=C\C/C=C\CCC(=O)NCCNC(=O)c1ccccc1O [CAT-1004, N-(2-[(4Z,7Z,10Z,13Z,16Z,19Z)-docosa-4,7,10,13,16,19-hexaenamido]ethyl)-2-hydroxybenzamide]
inflammation and fibrosis in quadriceps (Mdx mice [3]): reduction of inflammation and fibrosis
exon 23 skipping [4]: neither exon skipping nor dystrophin production were observed
phenotype [6]: improves the phenotype
diaphragm function [6]: improved diaphragm function
dystrophin production (dystrophin protein): neither exon skipping nor dystrophin production were observed
inflammation and fibrosis (Mdx mice [7]): reduced inflammation and fibrosis
cumulative run distance (Mdx mice [7]; mdx mice, long-term studies): increased cumulative run distance
exercise endurance (Mdx mice [7]; mdx mice): increased exercise endurance
muscle degeneration and inflammation (Mdx mice [7]; mdx mice): reduce muscle degeneration and inflammation
muscle function (Mdx mice [7]; mdx mice): preserve muscle function
muscle regeneration (Mdx mice [7]; mdx mice): enhance muscle regeneration
phenotype (Mdx mice [7]): improves the phenotype
diaphragm function (Mdx mice [7]): improved diaphragm function
cNF-κB activation (cNF-κB): inhibit cNF-κB activation in vitro
safety and tolerability [8]: safe, well tolerated
levels of the p65 subunit of NF-κB (NF-κB; healthy adult humans, compared to placebo or salicylate and omega-3 DHA as separate molecules): lowers levels of the p65 subunit of NF-κB
biomarkers of inflammation in whole blood (NF-κB; humans): decrease of biomarkers of inflammation
activated NF-κB pathways (NF-κB; phase I clinical program in adults, listed as Edasalonexent): inhibited activated NF-kB pathways; also recorded: inhibited activated NF-κB pathways
NF-κB activity (NF-κB p65; dog model of DMD): decreases NF-κB activity
binding of the p65 subunit to DNA (NF-κB p65; dog model of DMD): reduced binding of the p65 subunit to DNA
secretion of the inflammatory mediator TNF-α (NF-κB p65; dog model of DMD): reduced secretion of the inflammatory mediator TNF-α
NF-κB p65-dependent inflammatory responses and downstream proinflammatory genes modulated by p65 (NF-κB p65; golden retriever DMD model): significantly inhibit

CC/C=C\C/C=C\C/C=C\C/C=C\C/C=C\CCCC(=O)NCCNC(=O)c1ccccc1O [CAT-1041]
phenotype [6]: improves the phenotype
diaphragm function [6]: improved diaphragm function
inflammation and fibrosis (Mdx mice [7]): reduced inflammation and fibrosis
muscle fibrosis (Mdx mice [7]; mdx mice, long-term studies): reduces muscle fibrosis
skeletal muscle weight (Mdx mice [7]; mdx mice, long-term studies): increases skeletal muscle weight
exercise endurance (Mdx mice [7]; mdx mice): increased exercise endurance
muscle function (Mdx mice [7]; mdx mice): preserves muscle function
phenotype (Mdx mice [7]): improves the phenotype
diaphragm function (Mdx mice [7]): improved diaphragm function
cNF-κB activation (cNF-κB): inhibit cNF-κB activation in vitro

triacetyl-beta-cyclodextrin
solubility in water (in words) [9]: insoluble

G-2-beta-cyclodextrin
solubility in water [9]: 147 % (w/v)

Reference: patent US20210145852A1, “Combination Therapies for Treating Muscular Dystrophy” (Sarepta Therapeutics, Inc., priority 2017, published 2021)
